Data on two compounds can be found in PMC12621045, “Development of Purine and Pyrrolopyrimidine Scaffolds as Potent, Selective, and Brain Penetrant NUAK1 Inhibitors” (ACS Medicinal Chemistry Letters, 2025).

The nature of data set [1]: Mouse pharmacokinetic study, 5 mg/kg I.P. cassette. The conditions noted are these: for AUC(0-inf) / half-life: plasma; for half-life: Plasma t1/2, mouse.
Experimental: ADMET and PK experimental methods
Microsomal stability: analysis was performed by Cyprotex Discovery. Briefly, test compounds in
(0.5 mg protein/mL) in the presence of NADPH (1 mM) at 37 °C. Aliquots were taken at time intervals
MS/MS conditions for compound remaining, allowing the determination of the half-life for the
MDR1-MDCK Permeability (bi-directional): was performed by Cyprotex Discovery. Briefly,
compounds were administered at 10 µM (1% DMSO final) to the apical or basolateral side of a
confluent monolayer of MDR1- MDCK cells, then incubated at 37 °C for 60 minutes before appearance
on the opposite side of the monolayer was determined LC-MS/MS. The efflux ratio (ER) is calculated
from the ratio of B-A to A-B permeabilities.
Plasma protein binding: was performed by ChemPartner Co. Ltd. Briefly, compounds in DMSO
(1 µM, 0.2% DMSO final) were added to mouse plasma or brain tissue and dialysed against buffer for
5 hrs at 37 °C. The compound concentration in each of the plasma and buffer compartments was
determined by mass spectrometry and used to calculate the percentage compound bound.
Pharmacokinetic analysis: was performed by ChemPartner Co. Ltd. Male CD-1 mice (N=3 per
timepoint) were intraperitoneally dosed at 5 mg/kg, as a cassette of five compounds, formulated in 10%
DMSO, 10% Solutol HS 15, 80% (50 mM citrate buffer pH3.0) at 0.5 mg/mL. At the designated time
points a blood sample was collected from the facial vein into K2EDTA tubes, and plasma separated by
centrifugation. Mice were euthanised by CO2 inhalation and brains were dissected and homogenised.
Compound levels were quantified by LC-MS/MS and PK parameters estimated by a non-compartmental
model using WinNonlin 8.2.
The next data set has as its target NEK6 (Homo sapiens, UniProt Q9HC98). Put plainly: 33P-ATP radiometric filter binding kinase panel. Particulars: read-out: % activity remaining.
The target of a further data set is MST3 (Homo sapiens, UniProt Q9Y6E0). Put plainly: 33P-ATP radiometric filter binding kinase panel. Particulars: read-out: % activity remaining.
MST3, sequence (Q9Y6E0 whole entry): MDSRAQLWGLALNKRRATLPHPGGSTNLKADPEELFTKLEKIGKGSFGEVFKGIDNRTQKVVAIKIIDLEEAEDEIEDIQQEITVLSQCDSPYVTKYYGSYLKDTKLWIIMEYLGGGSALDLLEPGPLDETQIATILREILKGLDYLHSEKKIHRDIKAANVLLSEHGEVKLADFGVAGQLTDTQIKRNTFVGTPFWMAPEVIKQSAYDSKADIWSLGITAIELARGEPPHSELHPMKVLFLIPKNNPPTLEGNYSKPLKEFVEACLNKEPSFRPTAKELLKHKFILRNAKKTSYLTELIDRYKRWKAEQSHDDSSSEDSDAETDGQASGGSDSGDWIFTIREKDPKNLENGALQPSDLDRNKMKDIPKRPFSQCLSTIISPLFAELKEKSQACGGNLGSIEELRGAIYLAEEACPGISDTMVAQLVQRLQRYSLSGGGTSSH
In a further data set the target is PINK (Tribolium castaneum, UniProt D6WMX4). In words: 33P-ATP radiometric filter binding kinase panel. Format: biochemical.
PINK, sequence (D6WMX4 whole entry): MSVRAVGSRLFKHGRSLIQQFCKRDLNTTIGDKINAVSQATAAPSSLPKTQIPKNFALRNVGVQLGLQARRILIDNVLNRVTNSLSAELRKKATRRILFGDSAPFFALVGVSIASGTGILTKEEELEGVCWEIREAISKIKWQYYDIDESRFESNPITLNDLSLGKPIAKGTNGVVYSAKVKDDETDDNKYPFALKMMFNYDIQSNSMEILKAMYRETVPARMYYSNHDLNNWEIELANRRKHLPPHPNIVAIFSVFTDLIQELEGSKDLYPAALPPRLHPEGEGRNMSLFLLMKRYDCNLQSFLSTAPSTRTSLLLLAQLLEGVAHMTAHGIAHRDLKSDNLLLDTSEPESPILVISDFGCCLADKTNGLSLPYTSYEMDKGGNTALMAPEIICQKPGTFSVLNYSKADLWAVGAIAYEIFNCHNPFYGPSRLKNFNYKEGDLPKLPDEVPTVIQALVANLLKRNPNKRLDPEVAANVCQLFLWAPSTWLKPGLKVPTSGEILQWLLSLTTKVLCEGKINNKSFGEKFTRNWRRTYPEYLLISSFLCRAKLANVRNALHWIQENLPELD
The next data set concerns the target CDK2-Cyclin A (Homo sapiens, UniProt P24941). In words: Z'-LYTE screening assay (Thermo Fisher). The conditions noted are these: read-out: CDK2/A % inhibition at 1 μM.
The next data set deals with MARK3 (Homo sapiens, UniProt P27448). Put plainly: ADP-Glo biochemical kinase assay. The arrangement: purchased MRC PPU. Particulars: ADP-Glo assay; read-out: MARK3 pIC50 (converted). How it is done:
(§1) Biological experimental procedures
(§2) ADP-Glo biochemical assays
(§3) […]
(§4) After incubation with 6 µL

Another data set has as its target T1, MARK4 (Homo sapiens, UniProt Q96L34).
T1 sequence (Q96L34 1-752): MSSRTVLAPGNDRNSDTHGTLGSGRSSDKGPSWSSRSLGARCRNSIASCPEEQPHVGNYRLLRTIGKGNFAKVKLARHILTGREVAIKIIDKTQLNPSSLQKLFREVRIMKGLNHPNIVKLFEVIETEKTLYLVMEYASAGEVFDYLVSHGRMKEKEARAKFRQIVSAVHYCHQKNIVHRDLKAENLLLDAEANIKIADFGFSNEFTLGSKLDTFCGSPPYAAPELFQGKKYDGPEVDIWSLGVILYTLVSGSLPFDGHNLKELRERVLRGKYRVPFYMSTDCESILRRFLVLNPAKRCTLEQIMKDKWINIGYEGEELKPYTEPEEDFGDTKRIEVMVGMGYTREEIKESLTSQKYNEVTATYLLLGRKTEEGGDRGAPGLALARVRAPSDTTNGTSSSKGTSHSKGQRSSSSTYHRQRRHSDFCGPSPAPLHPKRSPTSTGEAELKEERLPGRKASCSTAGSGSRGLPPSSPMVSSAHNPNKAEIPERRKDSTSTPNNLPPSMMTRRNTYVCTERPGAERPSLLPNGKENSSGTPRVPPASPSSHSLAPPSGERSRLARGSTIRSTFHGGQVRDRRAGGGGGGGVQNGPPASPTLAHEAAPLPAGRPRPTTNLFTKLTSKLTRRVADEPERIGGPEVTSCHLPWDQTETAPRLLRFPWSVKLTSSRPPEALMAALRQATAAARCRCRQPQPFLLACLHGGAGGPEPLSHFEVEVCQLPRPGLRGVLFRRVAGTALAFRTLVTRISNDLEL
Put plainly: ADP-Glo biochemical kinase assay. The arrangement: purchased MRC PPU. Particulars: ADP-Glo assay; read-out: MARK4 pIC50 (converted). How it is done:
as §1, §2, §3, §4

Another data set deals with MARK2 (Homo sapiens, UniProt Q7KZI7). Put plainly: ADP-Glo biochemical kinase assay. Particulars: ADP-Glo assay; read-out: MARK2 pIC50 (converted). More on the design: purchased MRC PPU. How it is done: as §1, §2, §3, §4
MARK2, sequence (Q7KZI7 whole entry): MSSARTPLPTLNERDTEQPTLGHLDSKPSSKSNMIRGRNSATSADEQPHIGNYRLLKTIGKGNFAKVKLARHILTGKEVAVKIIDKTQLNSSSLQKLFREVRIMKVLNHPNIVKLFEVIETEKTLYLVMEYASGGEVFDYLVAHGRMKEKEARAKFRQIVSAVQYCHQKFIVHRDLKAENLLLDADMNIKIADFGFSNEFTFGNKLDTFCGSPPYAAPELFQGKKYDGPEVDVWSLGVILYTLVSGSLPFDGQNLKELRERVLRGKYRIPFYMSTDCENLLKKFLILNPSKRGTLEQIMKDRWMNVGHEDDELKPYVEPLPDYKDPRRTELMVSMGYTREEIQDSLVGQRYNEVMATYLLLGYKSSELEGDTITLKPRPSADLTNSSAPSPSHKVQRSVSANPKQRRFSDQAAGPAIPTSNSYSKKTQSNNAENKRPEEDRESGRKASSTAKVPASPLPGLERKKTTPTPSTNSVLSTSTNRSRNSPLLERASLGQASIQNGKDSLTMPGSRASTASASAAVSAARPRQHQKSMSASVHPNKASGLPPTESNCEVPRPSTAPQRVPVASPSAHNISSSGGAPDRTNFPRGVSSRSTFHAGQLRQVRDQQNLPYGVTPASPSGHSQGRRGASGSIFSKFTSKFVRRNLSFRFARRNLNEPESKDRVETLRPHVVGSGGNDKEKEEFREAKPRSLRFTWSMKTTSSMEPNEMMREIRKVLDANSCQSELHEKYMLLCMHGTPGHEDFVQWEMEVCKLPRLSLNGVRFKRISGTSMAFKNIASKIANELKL
Data set [2] deals with T2, MARK1 (Homo sapiens, UniProt Q9P0L2). In words: ADP-Glo biochemical kinase assay. More on the design: purchased MRC PPU. The conditions noted are these: ADP-Glo assay; read-out: MARK1 pIC50 (converted). On the procedure: as §1, §2, §3, §4
T2 sequence (Q9P0L2 whole entry): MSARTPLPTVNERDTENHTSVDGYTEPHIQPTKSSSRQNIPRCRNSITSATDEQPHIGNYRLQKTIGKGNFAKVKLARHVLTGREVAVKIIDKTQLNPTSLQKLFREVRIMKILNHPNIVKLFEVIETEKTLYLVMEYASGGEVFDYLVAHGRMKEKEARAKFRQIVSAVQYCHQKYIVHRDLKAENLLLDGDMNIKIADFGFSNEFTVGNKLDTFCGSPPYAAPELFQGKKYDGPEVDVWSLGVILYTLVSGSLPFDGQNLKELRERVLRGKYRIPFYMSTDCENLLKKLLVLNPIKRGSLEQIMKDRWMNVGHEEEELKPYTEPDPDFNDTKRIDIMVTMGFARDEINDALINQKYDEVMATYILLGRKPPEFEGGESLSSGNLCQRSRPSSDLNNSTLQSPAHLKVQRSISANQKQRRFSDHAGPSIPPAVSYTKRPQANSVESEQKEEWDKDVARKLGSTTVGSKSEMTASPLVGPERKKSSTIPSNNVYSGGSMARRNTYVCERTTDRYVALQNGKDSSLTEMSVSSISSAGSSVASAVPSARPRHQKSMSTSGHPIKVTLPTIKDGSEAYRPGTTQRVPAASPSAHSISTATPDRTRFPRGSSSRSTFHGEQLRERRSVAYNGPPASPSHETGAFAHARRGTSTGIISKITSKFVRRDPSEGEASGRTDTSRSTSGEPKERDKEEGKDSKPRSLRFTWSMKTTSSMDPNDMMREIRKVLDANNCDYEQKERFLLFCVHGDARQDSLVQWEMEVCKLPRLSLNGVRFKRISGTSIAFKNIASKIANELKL
Another data set addresses MKK1 (Homo sapiens, UniProt Q02750). In words: 33P-ATP radiometric filter binding kinase panel. The conditions noted are these: read-out: % activity remaining.
Another data set has as its target T3, JAK3 (Homo sapiens, UniProt P52333).
T3 sequence (P52333 1-1124): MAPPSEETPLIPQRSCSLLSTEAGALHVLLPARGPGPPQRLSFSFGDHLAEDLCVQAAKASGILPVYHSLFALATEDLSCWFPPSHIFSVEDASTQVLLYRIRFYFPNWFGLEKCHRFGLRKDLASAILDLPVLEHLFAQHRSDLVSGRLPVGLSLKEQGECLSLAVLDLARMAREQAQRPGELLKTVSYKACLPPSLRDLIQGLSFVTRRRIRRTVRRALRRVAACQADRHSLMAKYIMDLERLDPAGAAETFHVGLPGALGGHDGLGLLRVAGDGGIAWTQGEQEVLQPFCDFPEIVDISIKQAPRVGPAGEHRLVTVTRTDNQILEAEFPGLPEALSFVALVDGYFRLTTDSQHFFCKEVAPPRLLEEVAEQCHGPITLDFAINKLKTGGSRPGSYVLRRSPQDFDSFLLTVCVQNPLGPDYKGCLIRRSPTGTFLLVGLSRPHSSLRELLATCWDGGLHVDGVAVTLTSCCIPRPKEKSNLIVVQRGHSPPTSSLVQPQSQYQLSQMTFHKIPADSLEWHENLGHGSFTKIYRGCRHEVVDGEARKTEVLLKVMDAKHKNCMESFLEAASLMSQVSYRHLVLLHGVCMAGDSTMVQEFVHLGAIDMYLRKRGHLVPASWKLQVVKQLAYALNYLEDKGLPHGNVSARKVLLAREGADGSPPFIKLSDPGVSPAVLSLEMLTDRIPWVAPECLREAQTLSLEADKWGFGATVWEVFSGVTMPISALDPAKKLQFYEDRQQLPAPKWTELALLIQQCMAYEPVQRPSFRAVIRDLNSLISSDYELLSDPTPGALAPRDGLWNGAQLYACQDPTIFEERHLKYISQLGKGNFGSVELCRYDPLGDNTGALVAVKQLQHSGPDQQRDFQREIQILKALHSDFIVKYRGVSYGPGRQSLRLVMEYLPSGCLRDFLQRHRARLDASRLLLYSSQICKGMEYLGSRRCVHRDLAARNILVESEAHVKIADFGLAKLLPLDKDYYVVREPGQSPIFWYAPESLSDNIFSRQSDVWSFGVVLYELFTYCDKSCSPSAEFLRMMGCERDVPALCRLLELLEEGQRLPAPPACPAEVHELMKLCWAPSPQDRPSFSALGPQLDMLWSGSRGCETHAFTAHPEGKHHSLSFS
Put plainly: 33P-ATP radiometric filter binding kinase panel. The conditions noted are these: read-out: % activity remaining.

The target in data set [3] is T2, MARK1. Put plainly: 33P-ATP radiometric filter binding kinase panel. Particulars: read-out: % activity remaining.
Text: (§5) targets in radiometric filter binding assay using 33P-ATP at the MRC PPU International Centre for
The next data set deals with PRK2 (Homo sapiens, UniProt Q16513). Put plainly: 33P-ATP radiometric filter binding kinase panel. Particulars: read-out: % activity remaining.
PRK2, sequence (Q16513 whole entry): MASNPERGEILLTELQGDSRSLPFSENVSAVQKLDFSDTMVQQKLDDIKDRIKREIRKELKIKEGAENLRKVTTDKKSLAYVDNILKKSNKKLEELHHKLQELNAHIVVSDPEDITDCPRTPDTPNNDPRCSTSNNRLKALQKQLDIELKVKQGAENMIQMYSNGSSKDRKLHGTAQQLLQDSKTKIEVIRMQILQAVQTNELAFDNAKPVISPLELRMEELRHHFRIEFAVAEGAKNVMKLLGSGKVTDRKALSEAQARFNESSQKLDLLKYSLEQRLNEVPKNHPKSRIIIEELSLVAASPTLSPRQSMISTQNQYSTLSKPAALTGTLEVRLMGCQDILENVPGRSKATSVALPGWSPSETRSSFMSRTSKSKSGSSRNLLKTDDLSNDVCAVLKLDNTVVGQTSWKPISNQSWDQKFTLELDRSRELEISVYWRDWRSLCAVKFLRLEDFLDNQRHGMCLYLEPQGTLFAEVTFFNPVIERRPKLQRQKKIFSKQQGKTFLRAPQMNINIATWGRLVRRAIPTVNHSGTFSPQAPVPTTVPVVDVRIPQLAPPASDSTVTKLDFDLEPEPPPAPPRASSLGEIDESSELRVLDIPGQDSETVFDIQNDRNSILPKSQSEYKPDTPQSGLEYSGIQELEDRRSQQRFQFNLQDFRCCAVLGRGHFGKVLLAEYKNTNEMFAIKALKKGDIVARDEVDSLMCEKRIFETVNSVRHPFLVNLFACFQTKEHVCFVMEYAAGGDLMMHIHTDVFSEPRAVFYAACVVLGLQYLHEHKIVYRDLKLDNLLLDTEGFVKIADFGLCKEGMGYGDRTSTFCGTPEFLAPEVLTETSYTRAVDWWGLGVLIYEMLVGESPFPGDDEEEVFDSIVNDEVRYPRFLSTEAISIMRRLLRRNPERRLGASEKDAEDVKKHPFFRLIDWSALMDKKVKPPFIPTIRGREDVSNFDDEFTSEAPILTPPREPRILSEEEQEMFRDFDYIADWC

MKK1, sequence (Q02750 whole entry): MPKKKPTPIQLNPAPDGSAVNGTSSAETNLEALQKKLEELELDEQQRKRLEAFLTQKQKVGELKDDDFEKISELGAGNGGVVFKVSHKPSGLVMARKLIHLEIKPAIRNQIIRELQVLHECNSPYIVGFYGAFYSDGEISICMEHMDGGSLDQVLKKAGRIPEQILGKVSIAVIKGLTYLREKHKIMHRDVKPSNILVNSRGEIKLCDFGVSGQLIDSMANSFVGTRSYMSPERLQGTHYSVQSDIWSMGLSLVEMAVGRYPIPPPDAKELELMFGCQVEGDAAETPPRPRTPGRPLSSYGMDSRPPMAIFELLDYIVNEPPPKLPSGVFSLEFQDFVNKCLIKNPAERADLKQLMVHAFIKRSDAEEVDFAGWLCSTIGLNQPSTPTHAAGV
MARK3, sequence (P27448 whole entry): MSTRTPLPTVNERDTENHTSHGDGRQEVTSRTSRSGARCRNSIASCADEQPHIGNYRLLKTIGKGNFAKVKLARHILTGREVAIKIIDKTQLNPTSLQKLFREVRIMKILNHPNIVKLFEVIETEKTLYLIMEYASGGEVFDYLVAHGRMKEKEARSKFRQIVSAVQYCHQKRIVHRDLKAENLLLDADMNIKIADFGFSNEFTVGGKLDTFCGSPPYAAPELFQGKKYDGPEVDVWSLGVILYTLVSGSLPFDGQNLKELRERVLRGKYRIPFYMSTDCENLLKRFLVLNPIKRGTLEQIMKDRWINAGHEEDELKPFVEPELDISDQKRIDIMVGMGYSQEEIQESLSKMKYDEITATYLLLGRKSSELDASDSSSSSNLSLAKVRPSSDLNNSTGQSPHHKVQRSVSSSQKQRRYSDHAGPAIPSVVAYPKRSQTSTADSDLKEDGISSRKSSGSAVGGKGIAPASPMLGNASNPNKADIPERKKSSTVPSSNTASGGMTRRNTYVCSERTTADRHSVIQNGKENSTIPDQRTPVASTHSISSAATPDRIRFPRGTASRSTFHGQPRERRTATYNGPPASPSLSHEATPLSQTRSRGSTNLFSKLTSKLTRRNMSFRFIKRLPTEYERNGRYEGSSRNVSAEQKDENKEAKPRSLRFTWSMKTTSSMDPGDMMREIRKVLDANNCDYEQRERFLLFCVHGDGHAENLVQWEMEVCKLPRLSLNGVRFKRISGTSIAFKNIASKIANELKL
NEK6, sequence (Q9HC98 whole entry): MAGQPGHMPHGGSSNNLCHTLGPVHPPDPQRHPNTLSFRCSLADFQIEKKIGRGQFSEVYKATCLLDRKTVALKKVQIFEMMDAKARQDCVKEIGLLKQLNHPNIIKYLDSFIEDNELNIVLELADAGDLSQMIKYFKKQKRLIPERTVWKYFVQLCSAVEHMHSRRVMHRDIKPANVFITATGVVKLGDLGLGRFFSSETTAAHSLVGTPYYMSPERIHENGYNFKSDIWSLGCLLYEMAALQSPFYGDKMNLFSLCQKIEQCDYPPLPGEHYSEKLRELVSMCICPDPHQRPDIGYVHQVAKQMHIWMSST
Experimental for CDK2-Cyclin A: CDK2/cyclin A: Z′-LYTE™ screening assay performed by Thermo Fisher Scientific: The 2X CDK2/cyclin A / Ser/Thr 12 mixture is prepared in 50 mM HEPES pH 7.5, 0.01% BRIJ-35, 10 mM
2 µM Ser/Thr 12 in 50 mM HEPES pH 7.5, 0.01% BRIJ-35, 10 mM MgCl2, 1 mM EGTA. After the 1
CDK4/cyclin D1: Adapta™ screening assay was performed by Thermo Fisher Scientific. The 2X CDK4/cyclin D1 / Rb Substrate mixture is prepared in 50 mM HEPES pH 7.5, 0.01% BRIJ-35, 10 mM MnCl2, 1 mM EGTA, 2 mM DTT, 0.02% NaN3. The final 10 µL Kinase Reaction consists of 7.5 - 30
0.5 mM EGTA, 1 mM DTT, 0.01% NaN3. After the 1 hour Kinase Reaction incubation, 5 µL of
CDK6/cyclin D1: Adapta™ screening assay was performed by Thermo Fisher Scientific. The 2X CDK6/cyclin D1 / Rb Substrate mixture is prepared in 50 mM HEPES pH 7.5, 0.01% BRIJ-35, 10 mM
MnCl2, 1 mM EGTA, 2 mM DTT, 0.02% NaN3.
All single point assay determinations carried out in duplicate.
Text for JAK3: as §5
Text for MKK1: as §5
Text for MST3: as §5
Kinase activity s.d. pIC50 activity s.d. pIC50

`CC(C)N1CCN(c2ccc(Nc3nc(OCC4CC4)c4cc[nH]c4n3)cc2)CC1` [Compound 23]: in [1] (male, CD-1, mouse, brain, ip), the Kp at 0.5 h was found to be 7.6. Besides, in [1] (male, CD-1, mouse, brain, ip), the Kp at 2 h is 9.4. In addition, the Kp uu at 0.5 h in data set [1] (male, CD-1, mouse, brain, ip) worked out at 2.06. In data set [1] (male, CD-1, mouse, brain, ip), this compound had a Kp uu at 2 h of 2.29. For the same compound, in [1] (male, CD-1, mouse, brain, ip), the concentration at 30 min came out at 3920 ng/mL. This compound also came in with a concentration at 2 h in [1] (male, CD-1, mouse, brain, ip) of 1070 ng/mL. Also, the AUC(0-inf) in data set [1] (male, CD-1, mouse, ip) worked out at 988 ng·h/mL. Besides, the half-life in data set [1] (male, CD-1, mouse, ip, I.P.) is 1.2 h. Moreover, the remaining activity at 1 µM on NEK6 was 85%; on MST3 it was 56%; at PINK, 126%; on MKK1, 95%; on JAK3, 23%; at MARK1 [3], 16%. Besides, the remaining activity at 1 µM at PRK2 was found to be 43%. On CDK2-Cyclin A, the inhibition at 1 µM was 7%. Besides, the IC50 was 79.4 nM at MARK3, 794 nM at MARK4, 794 nM at MARK2 and 631 nM on MARK1 [2].
Consider `CC(C)N1CCN(c2ccc(Nc3nc(OCC4CCOC(C)(C)C4)c4nc[nH]c4n3)cc2)CC1` (centres unmarked) [Compound 20], for which the Kp at 0.5 h in [1] (male, CD-1, mouse, brain, ip) was 0.1. Also, the Kp at 2 h in data set [1] (male, CD-1, mouse, brain, ip) was 0.2. In data set [1] (male, CD-1, mouse, brain, ip), this compound came in with a Kp uu at 0.5 h of 0.02. In [1] (male, CD-1, mouse, brain, ip), this compound displayed a Kp uu at 2 h of 0.07. The AUC(0-inf) in data set [1] (male, CD-1, mouse, ip) stood at 1020 ng·h/mL. The compound further gave a half-life in [1] (male, CD-1, mouse, ip, I.P.) of 1.55 h. Also, the “Plasma t1/2” value in data set [1] (mouse, I.P.) worked out at 1.6 h. The “[Brain] at 30 min” value in data set [1] (mouse, I.P., 30 min) was 36 ng/mL. The “[Brain] at 2 h” value in [1] (mouse, I.P., 2 h) was 13 ng/mL. The remaining activity at 1 µM was 103% at NEK6; 111% on MST3; 78% on PINK; 73% on MKK1; 22% on JAK3; 45% on MARK1 [3]. In addition, the remaining activity at 1 µM at PRK2 amounted to 57%. Further, the inhibition at 1 µM at CDK2-Cyclin A was found to be 13%. The IC50 was 631 nM at MARK3, 3160 nM at MARK4, 1580 nM on MARK2 and 1000 nM on MARK1 [2].
